# From ChEMBL document CHEMBL1201862, “PubChem BioAssay data set” (2004)
# Active and inactive are the calls of the source. For most assays here, no stated cut-off is given here; in the data, actives have a measured EC50 and inactives only a lower limit.
# Key:
# [1] = Trypanosoma cruzi growth suppression in host cells – NIH3T3 host cells, beta-gal luminescence, confirmation (AID 2044); assay type: functional, cell-based;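 further: intracellular parasites grown in NIH/3T3 mouse fibroblasts as host cells; luminescent beta-galactosidase reporter signal from transgenic T. cruzi replicating inside host cells; inhibitors lower the luminescence signal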
# [2] = target: T1, Replicative DNA helicase DnaB (Mycobacterium tuberculosis, UniProt P9WMR3); assay: DnaB intein splicing inhibitors, dose response, biochemical, cell-free fluorescence (AID 449749); assay type: functional
# T1 sequence (P9WMR3 whole entry): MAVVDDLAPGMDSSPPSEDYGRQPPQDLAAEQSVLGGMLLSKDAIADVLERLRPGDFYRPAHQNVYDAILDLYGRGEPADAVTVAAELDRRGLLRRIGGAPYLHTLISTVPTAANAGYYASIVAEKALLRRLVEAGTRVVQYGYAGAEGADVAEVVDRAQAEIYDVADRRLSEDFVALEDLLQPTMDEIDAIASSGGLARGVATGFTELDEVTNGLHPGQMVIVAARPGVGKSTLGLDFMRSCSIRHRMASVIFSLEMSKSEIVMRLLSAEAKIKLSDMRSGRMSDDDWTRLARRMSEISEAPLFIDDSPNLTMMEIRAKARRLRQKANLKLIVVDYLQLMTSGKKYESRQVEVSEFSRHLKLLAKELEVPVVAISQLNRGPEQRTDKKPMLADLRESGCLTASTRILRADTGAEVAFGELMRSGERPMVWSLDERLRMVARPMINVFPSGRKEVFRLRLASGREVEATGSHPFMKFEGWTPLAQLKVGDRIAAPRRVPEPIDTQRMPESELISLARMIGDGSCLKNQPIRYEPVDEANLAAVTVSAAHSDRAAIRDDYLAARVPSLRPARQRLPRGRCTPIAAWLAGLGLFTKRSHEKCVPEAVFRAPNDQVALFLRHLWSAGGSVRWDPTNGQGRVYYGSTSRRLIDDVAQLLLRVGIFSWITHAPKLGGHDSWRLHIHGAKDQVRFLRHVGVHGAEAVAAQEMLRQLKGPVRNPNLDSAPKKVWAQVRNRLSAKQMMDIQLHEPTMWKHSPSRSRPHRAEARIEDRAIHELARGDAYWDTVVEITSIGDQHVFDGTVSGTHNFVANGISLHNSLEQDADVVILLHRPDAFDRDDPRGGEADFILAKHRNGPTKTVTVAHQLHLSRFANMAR
# Protein RecA = target: T2, Protein RecA (Mycobacterium tuberculosis, UniProt P9WHJ3); assay: Fluorescence Cell-Free Homogeneous Dose Retest to Identify Inhibitors of RecA-Intein Splicing Activity. [Related pubchem assays (depositor defined):AID2097, AID2223, AID489010, AID492950]; assay type: functional
# T2 sequence (P9WHJ3 whole entry): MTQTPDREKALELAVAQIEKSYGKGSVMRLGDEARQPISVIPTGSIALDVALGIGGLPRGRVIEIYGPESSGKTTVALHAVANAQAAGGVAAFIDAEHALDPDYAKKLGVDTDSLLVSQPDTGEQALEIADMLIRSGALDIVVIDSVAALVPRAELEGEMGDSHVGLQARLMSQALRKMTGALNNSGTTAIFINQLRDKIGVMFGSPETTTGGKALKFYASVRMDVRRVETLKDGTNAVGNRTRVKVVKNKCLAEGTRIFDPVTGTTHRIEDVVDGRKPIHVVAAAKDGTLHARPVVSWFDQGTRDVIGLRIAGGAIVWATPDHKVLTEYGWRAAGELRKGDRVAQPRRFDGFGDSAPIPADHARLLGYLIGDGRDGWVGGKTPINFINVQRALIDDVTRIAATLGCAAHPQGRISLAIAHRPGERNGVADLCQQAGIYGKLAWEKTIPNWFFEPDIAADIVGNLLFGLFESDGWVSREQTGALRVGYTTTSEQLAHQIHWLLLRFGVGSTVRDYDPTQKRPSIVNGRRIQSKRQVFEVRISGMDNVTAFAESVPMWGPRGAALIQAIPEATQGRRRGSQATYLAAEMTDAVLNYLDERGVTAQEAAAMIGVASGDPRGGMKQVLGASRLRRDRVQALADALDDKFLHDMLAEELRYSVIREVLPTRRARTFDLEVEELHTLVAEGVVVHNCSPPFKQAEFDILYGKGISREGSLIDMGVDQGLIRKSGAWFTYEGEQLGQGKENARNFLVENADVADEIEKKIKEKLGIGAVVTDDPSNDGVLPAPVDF
# [3] = test system: Streptococcus sp. 'group A'; assay: Streptococcus pyogenes SK(-)GAS viability under kanamycin – luminescence, BacTiterGlo, confirmation, counter-screen for streptokinase expression inhibitor project, dose response (AID 1900); assay type: functional, organism-based
# Streptokinase A = target: T3, Streptokinase A (Streptococcus pyogenes serotype M1, UniProt P10520); assay: viability-normalized secreted streptokinase activity reduction – plasminogen activation absorbance, OD405, dose response (AID 1914); assay type: functional, Streptococcus pyogenes M1 GAS;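 further: secreted streptokinase activity via plasminogen activation per viability signal from cell pellet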
# T3 sequence (P10520 whole entry): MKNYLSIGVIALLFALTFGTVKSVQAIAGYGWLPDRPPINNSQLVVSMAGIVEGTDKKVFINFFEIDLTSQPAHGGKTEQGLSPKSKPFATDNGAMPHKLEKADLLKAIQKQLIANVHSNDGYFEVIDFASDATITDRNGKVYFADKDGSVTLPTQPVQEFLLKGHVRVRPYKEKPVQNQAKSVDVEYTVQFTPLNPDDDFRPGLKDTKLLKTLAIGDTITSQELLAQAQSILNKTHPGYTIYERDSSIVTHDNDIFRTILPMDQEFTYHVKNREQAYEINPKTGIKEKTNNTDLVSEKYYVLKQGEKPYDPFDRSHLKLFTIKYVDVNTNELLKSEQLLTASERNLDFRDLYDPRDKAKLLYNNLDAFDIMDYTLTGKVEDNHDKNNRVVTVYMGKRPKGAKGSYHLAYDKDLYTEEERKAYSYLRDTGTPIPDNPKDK
# Streptococcus = assay: GAS UMAA2166 growth inhibition – luminescence, BacTiterGlo, counter-screen for streptokinase expression inhibitor project, dose response (AID 1915); assay type: functional, organism-based;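 further: potency for reduction of bacterial viability or growth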
# [4] = NIH3T3 cell viability loss – ATP luminescence, mouse fibroblasts, counter-screen, dose response (AID 2010); assay type: functional, cell-based;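 further: cells exposed to compound for about 90 hours before reading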
# Cytochrome P450 1A2 = target: T4, Cytochrome P450 1A2 (Homo sapiens, UniProt P05177);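 further: PubChem cytochrome P450 panel assay, CYP1A2 panel member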
# T4 sequence (P05177 whole entry): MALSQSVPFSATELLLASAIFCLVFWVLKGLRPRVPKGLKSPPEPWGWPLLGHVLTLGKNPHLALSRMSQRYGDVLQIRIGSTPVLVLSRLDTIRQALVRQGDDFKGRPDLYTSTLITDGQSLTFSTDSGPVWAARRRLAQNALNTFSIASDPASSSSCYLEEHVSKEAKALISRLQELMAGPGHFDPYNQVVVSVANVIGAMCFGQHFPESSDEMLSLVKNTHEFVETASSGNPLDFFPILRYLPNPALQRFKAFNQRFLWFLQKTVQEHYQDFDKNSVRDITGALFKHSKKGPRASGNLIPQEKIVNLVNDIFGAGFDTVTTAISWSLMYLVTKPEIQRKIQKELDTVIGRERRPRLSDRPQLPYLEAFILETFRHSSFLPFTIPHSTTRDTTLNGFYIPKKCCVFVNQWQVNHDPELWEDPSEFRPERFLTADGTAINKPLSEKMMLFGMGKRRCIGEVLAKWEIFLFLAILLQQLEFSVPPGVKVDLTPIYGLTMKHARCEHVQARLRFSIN
smiles,measurement,setting,value
O=[N+]([O-])C(/C=C(/Cl)[N+](=O)[O-])=C(N1CCCCC1)N1CCCCC1,EC50,[1],1.25 µM (active)
same,AC50,[2],14.5 µM (active)
same,EC50,Protein RecA,8.34 µM (active)
COC(=O)CSc1nc2sc3c(c2c(=O)n1C1CCCCC1)CCN(C)C3,AC50,[2],> 120 µM (inactive)
same,EC50,Protein RecA,31.4 µM (active)
Cc1cc(Oc2ccc(-c3ccccc3)cc2)nc(N2CCOCC2)n1,EC50,[3],49.7 µM (active)
same,EC50,Streptokinase A,35.4 µM (active)
same,EC50,Streptococcus,> 150 µM (not active)
C=C(C)c1cccc(C(C)(C)NC(=O)NC2CCN(Cc3ccccc3)CC2)c1,EC50,[1],0.103 µM (active)
same,EC50,[4],> 60 µM (not active)
CN1CCN(c2nc(-c3ccccc3)nc(-c3ccc(F)cc3)c2C#N)CC1,EC50,[1],1.25 µM (active)
same,EC50,[4],> 60 µM (not active)
CCOC(=O)c1cc(-c2ccc(F)cc2)n(CCC(=O)NC2CCN(Cc3ccccc3)CC2)c1C,EC50,[1],0.773 µM (active)
same,EC50,[4],> 60 µM (not active)
Clc1cccc(Nc2ncnc3c2cnn3-c2ccccc2)c1,EC50,[3],7.78 µM (active)
same,EC50,Streptokinase A,> 150 µM (not active)
same,EC50,Streptococcus,6.82 µM (active)
COc1ccc(C2CC(c3ccccc3)=NN2c2ccc(S(N)(=O)=O)cc2)cc1 (configuration not stated),EC50,[1],2.83 µM (active)
same,EC50,[4],> 60 µM (inconclusive)
COc1ccc(Br)cc1C(=O)Nc1ccc(Cc2ccncc2)cc1,EC50,[1],3.4 µM (active)
same,EC50,[4],> 60 µM (not active)
CN(C)CCNC(=O)c1cc(Sc2ccc(F)cc2)nc2ccccc12,EC50,[1],0.282 µM (active)
same,EC50,[4],> 60 µM (not active)
CCOC(=O)c1cc(-c2ccc(OC(F)F)cc2)nc2c1c(=O)[nH]c(=O)n2C,EC50,[3],0.458 µM (active)
same,EC50,Streptococcus,1.97 µM (active)
CCCC(=O)OCCNc1cc(SCc2ccco2)c2nonc2c1[N+](=O)[O-],AC50,[2],4.88 µM (active)
same,EC50,Protein RecA,1.98 µM (active)
COc1ccc(C2=NN(C(=O)/C=C/c3ccccc3)C(c3ccccc3)C2)c(OC(C)=O)c1 (configuration not stated),AC50,[2],> 380 µM (inactive)
same,EC50,Protein RecA,53.8 µM (active)
O=C(O)COc1ccc(OCCNC[C@@H](O)COc2ccccc2)cc1,AC50,Cytochrome P450 1A2,39.8 µM (inconclusive)
Nc1nc(-c2ccc(Br)cc2)c(S(=O)(=O)c2ccccc2)s1,AC50,[2],4.22 µM (active)
same,EC50,Protein RecA,> 380 µM (inactive)
CCC[C@@H]1C[C@@]1(CCC)C(NC(=O)c1ccco1)c1ccc(Cl)cc1 (some centres not stated),AC50,Cytochrome P450 1A2,25.1 µM (inconclusive)
CCCc1n[nH]c2c1C(c1cccc(OC)c1)C(C#N)=C(N)O2 (configuration not stated),AC50,[2],19.3 µM (active)
same,EC50,Protein RecA,9.09 µM (active)
Cc1ccc(NC(=S)NC(=O)c2c(-c3ccccc3Cl)noc2C)cc1,AC50,Cytochrome P450 1A2,8.91 µM (inconclusive)
CS(=O)(=O)N1CCC2(CC1)CN(c1ccccc1)C2,AC50,Cytochrome P450 1A2,20 µM (inconclusive)
COc1ccc(N=Nc2cc(-c3ccccc3)ccc2O)cc1,EC50,[3],34.7 µM (active)
same,EC50,Streptokinase A,7.22 µM (active)
same,EC50,Streptococcus,> 150 µM (not active)
O=C(CCc1ccccc1)Nc1nnc(-c2ccc3c(c2)CCCC3)o1,EC50,[3],3.21 µM (active)
same,EC50,Streptokinase A,> 150 µM (not active)
same,EC50,Streptococcus,26.2 µM (active)
CCN1C(=O)C(=NNc2cccc(S(=O)(=O)N3CCOCC3)c2)C(=O)N(CC)C1=S,AC50,[2],> 380 µM (inactive)
same,EC50,Protein RecA,> 380 µM (inconclusive)
Cc1cccn2c(CNCC3(c4ccccc4)CCCC3)c(C(=O)N3CCOCC3)nc12,AC50,[2],> 380 µM (inactive)
same,EC50,Protein RecA,> 380 µM (inactive)
CCOC(=O)Cc1n[nH]c2c1C(c1ccsc1)C(C#N)=C(N)O2 (configuration not stated),AC50,[2],> 380 µM (inactive)
same,EC50,Protein RecA,31.3 µM (active)
CN(N)C(S)=Nc1ccc(Cl)cc1,AC50,[2],> 380 µM (inactive)
same,EC50,Protein RecA,> 380 µM (inactive)
CCC(C)Sc1cc(C(F)(F)F)c(C(=O)Nc2ccc(Cl)cc2)cn1 (configuration not stated),EC50,[3],4.03 µM (active)
same,EC50,Streptokinase A,2.38 µM (active)
same,EC50,Streptococcus,7.94 µM (active)
COCCn1c(=O)c(-c2cc(F)cc(F)c2)nc2cnc(Nc3cccc(OC)c3)nc21,AC50,Cytochrome P450 1A2,2.51 µM (inconclusive)
COc1ccc2cc(C(=O)/C=C/c3cc(OC)c(O)c(OC)c3)ccc2c1,EC50,[3],5.61 µM (active)
same,EC50,Streptokinase A,> 150 µM (not active)
same,EC50,Streptococcus,14.7 µM (active)
CSc1ccc(NC(=O)Nc2cccn(Cc3ccccc3F)c2=O)cc1,EC50,[1],4.33 µM (active)
same,EC50,[4],> 60 µM (not active)
O=C(/C=C\c1ccc(Cl)cc1)N[C@@]12CCC(=O)[C@@H]3Oc4c(O)ccc5c4[C@@]31CCN(CC1CC1)[C@@H]2C5,AC50,Cytochrome P450 1A2,39.8 µM (inconclusive)
Cc1ccc(NC(=O)C2CCCN(C(=O)c3ccc(Cl)cc3)C2)cc1S(=O)(=O)N1CCOCC1 (configuration not stated),EC50,[1],26.6 µM (active)
same,EC50,[4],> 60 µM (not active)
c1ccc(CCNc2ccccn2)nc1,AC50,Cytochrome P450 1A2,5.01 µM (inconclusive)
CCOc1cc(/C=N\NC(=O)OC(C)(C)C)ccc1OC(=O)c1ccco1,AC50,[2],12.8 µM (active)
same,EC50,Protein RecA,19.8 µM (active)
C=C1S/C(=N/c2ccccc2Cl)N(C(=O)c2sc3ccccc3c2Cl)C12CCCCC2,EC50,[3],20.2 µM (active)
same,EC50,Streptokinase A,19.8 µM (active)
same,EC50,Streptococcus,> 150 µM (not active)
OCCNc1nc(Nc2ccc(Br)cc2)nc2ccccc12,EC50,[1],0.801 µM (active)
same,EC50,[4],> 30 µM (not active)
CCOC(=O)C1=C(C)NC(C)=C(C(=O)OC)[C@@H]1c1cccc([N+](=O)[O-])c1 [(S)-NITRENDIPINE],AC50,Cytochrome P450 1A2,15.8 µM (inconclusive)
